Columns and labels:
Type in all cases: cell-based, human
UACC 903 melanoma cells = experiment: MTS cell viability assay, UACC 903 melanoma cells; details: free drug in DMSO, 24 hours treatment, read-out: half-maximal inhibitory concentration (IC50), cell viability
Experimental: (§1) Human fibroblast FF2441 cells and metastatic melanoma cell lines UACC 903 and 1205 Lu were maintained in DMEM (Invitrogen), supplemented with 10% FBS (Hyclone). Cell lines were maintained in a 37° C. humidified 5% CO2 atmosphere incubator and periodically monitored for phenotypic and genotypic characteristics, and for tumorigenic potential.
(§2) Viability of fibroblast and melanoma cells (UACC 903 and 1205 Lu) following treatment with ATK, leelamine, nanolipoATK, and nanolipoATK-999 was measured by MTS assay (Promega, Madison, Wis.). Briefly, 5×10^3 melanoma or fibroblast (FF2441) cells were plated per well in 100 μL of media and grown in 96-well plates for 48 hours. Cells were then treated with ATK alone, leelamine alone, nanolipoATK, nanolipolee, or nanoleelATK-999 for 24 hours before measuring cell viability.
(§3) IC50 values were calculated using Prism 4.0 GraphPad Software. Calculsyn software was used to evaluate synergy.
(§4) The melanoma cell lines UACC 903 and 1205 Lu, and normal human fibroblast cells FF2441, were treated with 1 μM, 1.5 μM, 2 μM, 2.5 μM, 3 μM, 3.5 μM, 4 μM, 4.5 μM, or 5 μM leelamine in DMSO. […] IC50 values were calculated using GraphPad Prism software.
(§5) The melanoma cell lines UACC 903 and 1205 Lu were treated with 15 μM, 20 μM, 25 μM, 30 μM, 35 μM, 40 μM, 45 μM, 50 μM, or 55 μM ATK in DMSO. […] IC50 values were calculated using GraphPad Prism software.

[1] = tested on: fibroblast cell line FF2441; experiment: MTS cell viability assay, normal fibroblasts FF2441; details: 1-5 μM leelamine in DMSO, 24 hours
Experimental: as §1, §2
The melanoma cell lines UACC 903 and 1205 Lu, and normal human fibroblast cells FF2441, were treated with 1 μM, 1.5 μM, 2 μM, 2.5 μM, 3 μM, 3.5 μM, 4 μM, 4.5 μM, or 5 μM leelamine in DMSO. Cells were maintained in DMEM supplemented with 10% FBS and L-glutamine. After 24 hours of treatment, an MTS assay was performed to determine the fractional cell viability relative to the DMSO control. IC50 values were calculated using GraphPad Prism software.

1205 Lu melanoma cells = experiment: MTS cell viability assay, 1205 Lu melanoma cells; details: free drug in DMSO, 24 hours treatment, read-out: half-maximal inhibitory concentration (IC50), cell viability
Experimental: as §1, §2, §3, §4, §5

With CC(C)c1ccc2c(c1)CC[C@H]1[C@](C)(CN)CCC[C@]21C [leelamine, (1R,4aS,10aR)-1,2,3,4,4a,9,10,10a-octahydro-1-,4a-dimethyl-7-(1-methylethyl)-1-phenanthrenemethanamine] the IC50 (UACC 903 melanoma cells) was 2.8 µM, the “killing of normal fibroblast cells” value [1] was “did not kill” and the IC50 (1205 Lu melanoma cells) was 3.8 µM.
